In publication PMC12249582, “Ruxolitinib Modulates P-Glycoprotein Function, Delays T Cell Activation, and Impairs CCL19 Chemokine-Directed Migration in Human Cytotoxic T Lymphocytes” (International Journal of Molecular Sciences, 2025):

Molecular target: T1, P-glycoprotein (Pgp/ABCB1) (Homo sapiens, UniProt P08183)
T1 construct: human Pgp stably expressed in NIH-3T3 MDR1 cells (cells and raw membrane preparations)
Assay: calcein-AM efflux inhibition in NIH-3T3 MDR1 cells (IC50); vanadate-sensitive ATPase stimulation in Pgp membranes
Type: cell-based

T1 sequence (P08183 whole entry): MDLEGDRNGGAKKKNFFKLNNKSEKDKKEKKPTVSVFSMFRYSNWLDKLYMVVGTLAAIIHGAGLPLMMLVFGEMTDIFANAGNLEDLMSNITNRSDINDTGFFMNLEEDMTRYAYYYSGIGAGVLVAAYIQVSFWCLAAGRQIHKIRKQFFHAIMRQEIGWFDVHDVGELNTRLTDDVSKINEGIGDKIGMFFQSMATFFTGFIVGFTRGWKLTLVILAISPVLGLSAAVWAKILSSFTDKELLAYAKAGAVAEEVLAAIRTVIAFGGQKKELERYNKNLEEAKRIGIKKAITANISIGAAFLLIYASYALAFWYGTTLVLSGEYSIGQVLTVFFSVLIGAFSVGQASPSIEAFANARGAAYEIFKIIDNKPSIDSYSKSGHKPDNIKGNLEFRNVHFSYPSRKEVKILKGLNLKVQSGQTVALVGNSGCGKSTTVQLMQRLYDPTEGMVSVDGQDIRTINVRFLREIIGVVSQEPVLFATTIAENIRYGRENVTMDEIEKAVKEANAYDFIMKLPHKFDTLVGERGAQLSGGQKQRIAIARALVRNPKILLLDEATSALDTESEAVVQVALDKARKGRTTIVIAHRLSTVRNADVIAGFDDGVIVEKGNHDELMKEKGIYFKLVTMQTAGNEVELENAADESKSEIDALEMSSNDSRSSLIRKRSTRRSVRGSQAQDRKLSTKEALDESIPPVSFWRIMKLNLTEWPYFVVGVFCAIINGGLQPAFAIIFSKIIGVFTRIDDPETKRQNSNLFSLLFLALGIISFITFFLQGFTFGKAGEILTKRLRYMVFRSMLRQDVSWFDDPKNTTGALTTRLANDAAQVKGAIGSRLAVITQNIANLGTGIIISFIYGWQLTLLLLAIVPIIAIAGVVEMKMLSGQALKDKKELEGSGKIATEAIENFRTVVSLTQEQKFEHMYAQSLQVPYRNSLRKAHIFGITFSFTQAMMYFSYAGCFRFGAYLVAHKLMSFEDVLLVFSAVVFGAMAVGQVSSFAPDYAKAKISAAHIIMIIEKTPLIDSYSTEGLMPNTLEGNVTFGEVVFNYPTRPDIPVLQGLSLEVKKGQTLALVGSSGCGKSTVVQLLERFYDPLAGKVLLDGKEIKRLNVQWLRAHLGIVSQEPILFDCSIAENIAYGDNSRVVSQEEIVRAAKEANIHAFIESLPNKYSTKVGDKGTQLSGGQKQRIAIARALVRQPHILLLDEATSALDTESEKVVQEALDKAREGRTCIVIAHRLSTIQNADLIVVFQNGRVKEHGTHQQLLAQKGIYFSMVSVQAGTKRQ

With `N#CC[C@H](C1CCCC1)n1cc(-c2ncnc3[nH]ccc23)cn1` [RUX, ruxolitinib] the IC50 was about 13 µM.
